From US20250090562A1, “METHODS, COMPOSITIONS AND USES RELATED TO THE TREATMENT AND PREVENTION OF LEIGH’S SYNDROME” (Stealth BioTherapeutics Inc., priority 2023, published 2025)

Assays:
[1] = test system: ROS production generated by reverse electron transfer (RET) from Complex II to Complex I; test: Reverse electron transfer assay (RET assay) in isolated brain mitochondria; assay type: biochemical, mouse
Method: For mitochondria isolation, brains were dissected at a local vivarium (Explora, MA, USA) from C57BL/6 mice that were supplied by The Jackson Laboratory (Maine, USA). Brains were collected on ice in cold mitochondria isolation buffer (225 mM mannitol, 75 mM sucrose, 5 mM HEPES, 1 mM EGTA, pH 7.4). In a glass petri dish, brains were mixed with a few drops of buffer and cut into small pieces resembling a mash using scissors. Mitochondrial isolation buffer was added at 1:10-1:20 (w/v) and tissue mash was transferred to a glass Dounce tissue homogenizer and further homogenized with 10-15 strokes. Mash was centrifuged at 1,000×g for 10 min to pellet and remove cellular debris, etc. Supernatant was transferred into 2.0 mL tubes and centrifuged at 10,000×g. […]
All high-resolution respirometry experiments were conducted using the Oroboros O2k-Fluorespirometer (Oroboros, Innsbruck, Austria). […] Prior to each experiment requiring the fluorescence module, the AmpR calibration protocol from DatLab 7.4 was used to calibrate the fluorescence signal. […]
Reverse electron transfer (RET) was measured using HRR with the Oroboros O2k and DatLab 7.4. […]
Statistical analysis was performed using GraphPad Prism 9. […] RET Assay data were analyzed by 2-way ANOVA using a p-value of 0.05. […]

[2] = Pharmacokinetics of Compound 3 and Compound 4, five daily subcutaneous doses, mice (plasma, heart, brain); assay type: in vivo, C57Bl/6 mice; conditions: mouse; for tolerability: SC once per day for 5 days, up to 60 mg/kg
Method: • Animals: Male/C57Bl/6 mice/-18-25 grams were received from an approved vendor. • Fasting was not required for this study. • Body weights were recorded prior to dose administration. The volume of each dose delivered (mL/kg) was based on each individual animal's body weight. • This was a multiple dose terminal study dosed once per day over 5 days. Mice were taken down following their 5th and final dose. • Doses were administered in accordance with test facility standard operating procedures. […] Any abnormalities were recorded. • Pre-formulated Compound 3 and Compound 4 were provided by Study sponsor ready to be dosed for each day in accordance with the Study Design set forth in Table 1, below.
• Terminal blood samples were collected via cardiac puncture following inhalation of anesthesia in accordance with test facility standard operating procedures. • Blood samples were collected into tubes with appropriate anticoagulant. The tubes were stored on wet ice until processed to plasma by centrifugation (3500 rpm at 5° C. for 10 minutes) within 20 minutes of collection. Sample aliquots of 100 μL were transferred into individual uniquely labeled matrix tubes and stored at nominal −80° C. until transferred to analytical chemistry for analysis by LC/MS/MS. • Immediately following each terminal blood collection for all groups, animals were sacrificed and perfused with cold PBS. The following tissues were collected: heart and brain in accordance with Table 2. • Plasma and tissue samples were processed for analysis by LC/MS/MS to determine the amounts/concentrations reported in the FIGS. 18-21.

[3] = SC, up to 2 hours post dose after 5 days

Row | SMILES | H2O2 production ([1]; 2 μM compound prior to succinate (10 mM)) | exposure (Cmax and AUC) heart compared with brain ([2]; SC) | heart exposure based on AUC, comparison between compounds ([2]; SC) | uptake into plasma after subcutaneous injection ([2]; SC) | tolerability [2] | concentration in brain tissue [2, 3] | concentration in heart tissue [2, 3] | H2O2 production ([1]; either 1 or 2 μM compound prior to succinate (10 mM)) | Tmax, Compound 4 compared with Compound 3 ([2]; in vivo, sc) | brain exposure based on AUC, comparison between compounds ([2]; in vivo, sc) | exposure (Cmax and AUC) heart compared with brain ([2]; in vivo, sc) | half-life, Compound 4 compared with Compound 3 ([2]; in vivo, sc) | uptake into plasma after subcutaneous injection ([2]; in vivo, sc)
1 | CC1=C(C)C(=O)C(CC[C@@](C)(O)COCCC[Si](C)(C)C)=C(C)C1=O [Compound 3] | statistically significant reduction | higher in heart than in brain | slightly higher that Compound 4 | migrate into the blood stream | well tolerated | up to microgram quantities of drug per gram of brain tissue | up to microgram quantities of drug per gram of heart tissue |  |  |  |  |  | 
2 | CC1=C(C)C(=O)C(CC[C@](C)(O)CCCCCCCCC(F)(F)F)=C(C)C1=O [Compound 4] |  |  |  |  | well tolerated |  |  | statistically significant reduction | typically later | somewhat higher than Compound 3 | no difference in the two tissue exposures | tended to be longer | migrate into the blood stream
